How the values were obtained:
GLP1R [1] = target: T1, GLP1R (Homo sapiens, UniProt P43220); experiment: GLP1R cAMP HTRF assay, HEK293/GLP-1R/CRE/Luc (HEK293T cells); type: cell-based; details: read-out: EC50
Summary of the method: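 cAMP accumulation via HTRF after 30 min, 37 °C exposure of 1000 receptor-expressing cells/well to compound (0.5% DMSO final) in IBMX (500 μM)/0.1% BSA DPBS.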

GLP1R [2] = target: T1, GLP1R; experiment: β-Arrestin-mediated GLP1R internalization assay (PathHunter engineered U2OS cells); type: cell-based; parameters: host or cells: PathHunter engineered U2OS cells; details: averaged Bmax, percentage of control GLP-1 (7-37), highest concentration tested
Text: A similar assay can also be used to assess the extent of signal attenuation due to GLP-1R internalization (the β-Arrestin Internalization Assay). In this assay, activated GLP1R Internalization cells were engineered to co-express an untagged GLP1R, Enzyme Acceptor (EA) tagged β-Arrestin, and a ProLink™ (PK) tag localized to the endosomes. Activation of the GLP1R induces β-Arrestin recruitment, which leads to internalization of the Receptor/Arrestin-EA complex in PK-tagged endosomes. This forces complementation of the two β-galactosidase enzyme fragments (EA and PK) to form a functional enzyme that hydrolyzes substrate to generate a chemiluminescent signal. These cells have been modified to prevent long term propagation and expansion using a proprietary compound that has no apparent effect on assay performance.
Specifically, PathHunter engineered U2OS cells from the assay kit (Cat #93-0724E3CP0L) were plated at a density of 2000 cells/20 μL/well in a 384-well white/clear bottom plates (Greiner Cat #781098). Frozen cells were quickly thawed and 10 mL of cell plating medium (provided by the kit) was added to thawed cells. Cells were stored in a 37° C. incubator and kept for approximately 48 hours until ready for the assay.
(§1) Reference and test compounds were dissolved in 100% DMSO. 5× concentration of an agonist was prepared in serum free DMEM (Thermo Cat #11965). 5 μL of this solution was added to 20 μL cell medium in assay plate for a final top concentration of 10 μM. Plates were incubated at 37° C. for 180 min.
(§2) Following 180 min incubation, detection reagents were made up by combining 1 part Galacton Star Substrate with 5 parts Emerald II™ Solution, and 19 parts of PathHunter Cell Assay Buffer, respectively. 12.5 μL detection reagent was added to each well. The plates were then incubated at room temperature for 60 min. Plates were then read on Envision for 0.1 sec/well.
(§3) EC50 determinations were made from agonist dose-response curves analyzed with a curve fitting program using a 4-parameter logistic dose response equation.

[3] = Monkey oral pharmacokinetic (PK) study, non-naïve Cynomolgus male monkeys; type: in vivo; details: Dose 2
Procedure: Appropriate volumes of vehicles (e.g., 2% Tween 80 (v:v) and 0.5% MC (w:v) in saline or 0.5% MC (w:v) in water were then added into the mortar containing the ground compounds, and the mixture was then grinded with a pestle until a homogeneous paste was formed. Additional appropriate volumes of vehicles were added into the mortar containing each compound, and the mixture was grinded further with the pestle until a homogeneous suspension was obtained.
The rest of the vehicle was added to make up the final dosing volume of about 1 mg/mL or 2 mg/mL (i.e., final dosing volume of about 5 mL/kg), and the homogenous suspension was continuously stirred prior to and during the dosing.
Non-naïve Cynomolgus male monkeys (n=3/test article; sourced from Hainan Jingang Biotech Co., Ltd., Nayang Xmtan, Fucheng Town, Qiongshan District, Haikou City, Hainan Province, China); or non-naïve aged, obese, and diabetic male Macaca fascicularis monkeys (n=3/test article, Source: Kunming Biomed International Colony) were used in pre-clinical in vivo studies. All non-naïve Cynomolgus male monkeys were approximately 3 to 5 years old, weighed about 2.5-5 kg, and were within ±20% of the average body weight. All non-naïve aged, obese, and diabetic male Macaca fascicularis monkeys were approximately 12 to 20 years old, weighed about >8-12 kg.
All animals were fasted overnight before dosing, and the food were supplied approximately 4 hours post dose (with free access to water all the time).
Animals were restrained at designated time points for blood sampling. Approximately 500 μL of blood samples was taken via cephalic or saphenous vein into EDTA-K2 tubes. Blood samples were put on wet ice before centrifugation.
For oral administration (PO) of either Dose 1 or Dose 2: blood samples were collected at pre-dose, and at 15 min, 30 min, 1 hr, 2 hr, 4 hr, (6 hr for compounds 19 and 28 with cynomolgus monkeys only), 8 hr, 12 hr, and 24 hr post dose (i.e., 9 or 10 total time points for each compound at each dose).
The blood samples were centrifuged at approximately 2,000-4,000 rpm for about 10-15 minutes at 2-8′C, and each resulting plasma portion was then transferred into an individual tube.
LC-MS/MS methods were developed, and bioanalysis for the test articles in monkey plasma was performed according to the developed LC-MS/MS methods.
Undiluted plasma samples: An aliquot of 20-50 μL plasma sample was mixed with 200 μL of ACN or MeOH containing one of the internal standards (IS, e.g., Diclofenac or Terfenadine). The mixture was then vortexed for about 1-5 min, and centrifuged at about 4,000-5,800 rpm for about 10-15 min. An aliquot of 1 μL supernatant was used for LC-MS/MS analysis.
Pharmacokinetics parameters, including area under the curve (AUC0-t), maximum plasma concentration (Cmax), time to reach maximum plasma concentration (Tmax), oral bioavailability (F %), etc., were calculated using Phoenix software (Version 6.4) and non-compartment model.

GLP1R [4] = target: T1, GLP1R; experiment: GLP-1R/β-Arrestin recruitment assay (PathHunter eXpress GLP1R CHO-K1 β-Arrestin GPCR Assay); type: cell-based; parameters: host or cells: PathHunter CHO-K1 GLP1R β-Arrestin cells; details: averaged Bmax, percentage of control GLP-1 (7-37), highest concentration tested
Text: GLP-1R agonist activity with respect to β-arrestin recruitment can be determined with a cell-based functional assay using PathHuntcr eXpress GLP1R CHO-K1 β-Arrestin GPCR Assay kit (DiscovcrX Cat #93-0300E2CP0M).
The PathHunter β-Arrestin GPCR assay technology utilizes a β-galactosidase (β-gal) enzyme that is split into two fragments, the smaller Enzyme Donor (ED) and the larger Enzyme Acceptor (EA). These fragments can be fused to two proteins that may interact with each other, such as EA-β-Arrestin and ED-GLP-1R. The fusions can be stably expressed in a test cell line, such as the PathHunter CHO-K1 GLP1R β-Arrestin cells described below.
Independently, these fragment fusions have no β-gal activity; however, in solution or in a living cell, they can be brought together and complement to form an active β-gal enzyme due to the interaction between the fused proteins, thus generating a chemiluminescent signal in the presence of a suitable β-gal substrate.
In this experiment, PathHunter CHO-K1 GLP1R β-Arrestin cells from the assay kit were plated at a density of 1000 or 2000 cells/20 μl/well in a 384-well white/clear bottom plates (Greiner Cat #781098). Frozen cells were quickly thawed and 10 mL of cell plating medium (provided by the kit) was added to thawed cells. Cells were stored in a 37° C. incubator under 5% CO2 and kept for approximately 48 hours until ready to ran the assay.
as §1, with “Plates were then incubated at” for “Plates were incubated at”, “37° C. under 5% CO2 for 90” for “37° C. for 180”, “CO2 for 90 min.” for “C. for 180 min.”
as §2, with “90” for “180”, “temperature in dark” for “temperature”
as §3
Cells were plated at a density of 1000 or 2000 cells/20 μL/well. Frozen cells were quickly thawed and added to 10 mL of cell plating medium. Cells were stored in a 37° C. incubator under 5% CO2 and left for approximately 48 hours until ready to run the assay.
• 1) Reference agonist compound GLP1 (7-37): dissolved with DMSO to make 1 mM stock solutions, aliquoted and stored at −80° C. • 2) Test compounds (such as the compounds of the invention) came solubilized in 100% DMSO.
Prepare 10× concentration of an agonist in serum free DMEM, and add all solutions into the compound plate. 2.5 μL of this solution was added to 20 μL cell medium in assay plate for a final top concentration of 10 μM. Plates were incubated at 37° C. under 5% CO2 for 30 min. An additional 2.5 μL of Buffer was added to the entire plate for agonist mode and incubated at 37° C. for another 90 min.
Following 90 min incubation, detection reagents were made up as described. 12.5 μL was added to all wells. The plates were then incubated at room temperature in dark for 60 min. Plates were then read on Envision for 0.1 sec/well.
Data analysis: GraphPad Prism 6 was used for establishment of progression curve. EC50S or IC50s were determined by 4-parameter logistic dose response equation.

[5] = male, cynomolgus monkey, plasma, oral

T1 sequence (P43220 24-463): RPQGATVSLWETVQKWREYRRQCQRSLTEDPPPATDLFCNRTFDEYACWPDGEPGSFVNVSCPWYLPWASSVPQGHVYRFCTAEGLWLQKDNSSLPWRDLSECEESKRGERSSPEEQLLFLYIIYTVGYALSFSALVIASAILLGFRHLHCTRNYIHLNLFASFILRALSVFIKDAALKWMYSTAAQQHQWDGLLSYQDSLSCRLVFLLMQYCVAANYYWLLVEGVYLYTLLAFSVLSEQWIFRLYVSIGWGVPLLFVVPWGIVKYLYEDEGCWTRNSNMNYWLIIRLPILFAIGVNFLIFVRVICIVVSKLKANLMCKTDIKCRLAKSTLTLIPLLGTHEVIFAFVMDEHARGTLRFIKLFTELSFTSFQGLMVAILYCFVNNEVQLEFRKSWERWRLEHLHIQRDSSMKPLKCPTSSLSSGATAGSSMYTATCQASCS

EC50 (GLP1R [1])	Bmax (POC) (GLP1R [2])	Bmax (POC) (GLP1R [4])	Structure (SMILES)	further results
≤ 15 nM	24.2 POC		Fc1cc(Cl)ccc1COc1cccc(C2=CCN(Cc3nc4ccc(-c5nnn[nH]5)cc4n3C[C@@H]3CCO3)CC2)n1 [Compound 105, (S)-2-((4-(6-(4-chloro-2-fluorobenzyloxy)pyridin-2-yl)-5,6-dihydropyridin-1(2H)-yl)methyl)-1-(oxetan-2-ylmethyl)-6-(1H-tetrazol-5-yl)-1H-benzo[d]imidazole]	
≤ 15 nM	22.8 POC		CS(=O)(=O)NC(=O)c1ccc2nc(CN3CC=C(c4cccc(OCc5ccc(Cl)cc5F)n4)CC3)n(C[C@@H]3CCO3)c2c1 [Compound 47, (S)-2-((4-(6-(4-chloro-2-fluorobenzyloxy)pyridin-2-yl)-5,6-dihydropyridin-1(2H)-yl)methyl)-N-(methylsulfonyl)-1-(oxetan-2-ylmethyl)-1 h-benzo[d]imidazole-6-carboxamide]	
			N#Cc1ccc(COc2cccc(C3CCN(Cc4nc5ccc(C(=O)O)cc5n4C[C@@H]4CCO4)CC3)n2)c(F)c1 [Compound 418, reference compound]	Tmax [3, 5]: 1.7 h; bioavailability [3, 5]: 8.17%; AUC0-24 h ([3]; oral): 774 Arbitrary units; Cmax ([3]; oral): 232 Arbitrary unit; drop in plasma concentration ([3]; over about 24 hours post oral dosing): about 10 fold
≤ 15 nM		7.16 POC	O=C(O)c1ccc2nc(CN3CCN(c4cncc(OCc5ccc(Cl)cc5F)n4)CC3)n(C[C@@H]3CCO3)c2c1 [Compound 11, (S)-2-((4-(6-(4-chloro-2-fluorobenzyloxy)pyrazin-2-yl)piperazin-1-yl)methyl)-1-(oxetan-2-ylmethyl)-1 h-benzo[d]imidazole-6-carboxylic acid]	
≤ 15 nM		9.66 POC	N#Cc1ccc(COc2cncc(N3CCN(Cc4nc5ccc(C(=O)O)cc5n4C[C@@H]4CCO4)CC3)n2)c(F)c1 [Compound 12, (S)-2-((4-(6-(4-cyano-2-fluorobenzyloxy)pyrazin-2-yl)piperazin-1-yl)methyl)-1-(oxetan-2-ylmethyl)-1 h-benzo[d]imidazole-6-carboxylic acid]	
≤ 150 nM		4.48 POC	N#Cc1ccc(COc2nccc(N3CCN(Cc4nc5ccc(C(=O)O)cc5n4C[C@@H]4CCO4)CC3)n2)c(F)c1 [Compound 10, (S)-2-((4-(2-((4-cyano-2-fluorobenzyl)oxy)pyrimidin-4-yl)piperazin-1-yl)methyl)-1-(oxetan-2-ylmethyl)-1H-benzo[d]imidazole-6-carboxylic acid]	
≤ 15 nM	19.1 POC		O=C(O)c1ccc2nc(CN3CC=C(c4cccc(OCc5ccc(C(F)(F)F)nc5)n4)CC3)n(C[C@@H]3CCO3)c2c1 [Compound 45, (S)-1-(oxetan-2-ylmethyl)-2-((4-(6-((6-(trifluoromethyl)pyridin-3-yl)methoxy)pyridin-2-yl)-5,6-dihydropyridin-1(2H)-yl)methyl)-1 h-benzo[d]imidazole-6-carboxylic acid]	
≤ 15 nM	27.03 POC		O=C(O)c1ccc2nc(CN3CCN(c4ccnc(OCc5ccc(Cl)cc5F)n4)CC3)n(C[C@@H]3CCO3)c2c1 [Compound 9, (S)-2-((4-(2-((4-chloro-2-fluorobenzyl)oxy)pyrimidin-4-yl)piperazin-1-yl)methyl)-1-(oxetan-2-ylmethyl)-1H-benzo[d]imidazole-6-carboxylic acid]	
≤ 15 nM		2.80 POC	O=C(O)c1ccc2nc(CN3CCN(c4cccc(NCc5ccc(Cl)cc5F)n4)CC3)n(C[C@@H]3CCO3)c2c1 [Compound 1, (S)-2-((4-(6-(4-chloro-2-fluorobenzylamino)pyridin-2-yl)piperazin-1-yl)methyl)-1-(oxetan-2-ylmethyl)-1 h-benzo[d]imidazole-6-carboxylic acid]	
≤ 15 nM	27.4 POC		O=C(O)c1ccc2nc(CN3CC=C(c4cccc(OCc5ccc(C(F)(F)F)cc5)n4)CC3)n(C[C@@H]3CCO3)c2c1 [Compound 46]	
